Reference: patent US10670605B2, “Cysteine reactive probes and uses thereof” (The Scripps Research Institute, priority 2015, dated 2020)
Each block holds one molecule with its values, some of them ahead of it.

Target: T1, IREB2 C137 (P48200) (Homo sapiens, UniProt P48200)
T1 sequence (P48200 1-963): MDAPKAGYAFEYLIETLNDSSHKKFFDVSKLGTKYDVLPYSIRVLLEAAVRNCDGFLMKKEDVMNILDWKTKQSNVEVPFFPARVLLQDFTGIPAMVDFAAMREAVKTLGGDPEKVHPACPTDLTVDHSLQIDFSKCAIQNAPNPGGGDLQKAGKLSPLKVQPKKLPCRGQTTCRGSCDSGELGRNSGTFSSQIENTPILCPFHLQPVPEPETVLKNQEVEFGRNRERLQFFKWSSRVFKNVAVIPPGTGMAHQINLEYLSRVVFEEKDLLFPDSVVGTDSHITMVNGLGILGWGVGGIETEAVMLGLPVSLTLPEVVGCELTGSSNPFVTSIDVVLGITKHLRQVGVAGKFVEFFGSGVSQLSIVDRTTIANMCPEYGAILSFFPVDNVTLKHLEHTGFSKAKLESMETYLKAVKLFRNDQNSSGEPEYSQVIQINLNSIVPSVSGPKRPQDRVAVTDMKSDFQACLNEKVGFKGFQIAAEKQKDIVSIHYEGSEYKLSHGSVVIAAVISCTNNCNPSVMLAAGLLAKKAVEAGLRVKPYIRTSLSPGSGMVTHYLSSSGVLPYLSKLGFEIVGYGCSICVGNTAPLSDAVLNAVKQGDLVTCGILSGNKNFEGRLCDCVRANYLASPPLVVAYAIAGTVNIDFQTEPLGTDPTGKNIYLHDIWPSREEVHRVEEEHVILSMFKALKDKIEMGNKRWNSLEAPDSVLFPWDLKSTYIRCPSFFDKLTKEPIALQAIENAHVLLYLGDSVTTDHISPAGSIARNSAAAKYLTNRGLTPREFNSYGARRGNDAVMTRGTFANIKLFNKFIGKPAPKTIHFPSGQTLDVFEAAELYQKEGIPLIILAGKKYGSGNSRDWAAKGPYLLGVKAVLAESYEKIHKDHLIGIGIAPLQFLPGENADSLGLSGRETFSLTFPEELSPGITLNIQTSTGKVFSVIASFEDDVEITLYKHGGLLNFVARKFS
Test: Competitive isoTOP-ABPP, cell lysates
Type: binding

SMILES: O=C(CCl)N1CCN(S(=O)(=O)c2ccccc2F)CC1 [compound 10]
isoTOP-ABPP ratio, P48200_C137 (500 μM, invitro, ramos): 2.1

SMILES: Cn1cc(S(=O)(=O)N2CCOCC2)cc1C(=O)NC(=O)CCl [compound 11]
isoTOP-ABPP ratio, P48200_C137 (500 μM, invitro, ramos): 3.7

SMILES: O=C(CCl)N1CCC(C(O)(c2ccccc2)c2ccccc2)CC1 [compound 20]
isoTOP-ABPP ratio (reactivity profile), P48200_C137 (500 μm in-vitro ramos): 5.2

SMILES: CC(C)CCOCCNC(=O)CCl [compound 27]
isoTOP-ABPP ratio (reactivity profile), P48200_C137 (500 μm in-vitro ramos_231): 1.4

SMILES: O=C(CCl)Nc1ccccc1C1CCCCCC1 [compound 35]
isoTOP-ABPP reactivity ratio, P48200_C137 (500 μm, in-vitro_ramos): 1.1

SMILES: C=CC(=O)N1CCC(c2noc3ccc(F)cc23)CC1 [compound 37]
isoTOP-ABPP reactivity ratio, P48200_C137 (500 μm, in-vitro_ramos): 0.9

SMILES: O=C(CCl)Nc1ccc(-c2ccccc2)cc1 [compound 52]
isoTOP-ABPP reactivity profile ratio, P48200_C137 (500 μm, in-vitro_ramos): 1.3

Further lines, results first:

R value (DMSO/fragment) (500 μM, invitro, ramos): 10.5
SMILES: COc1ccc2c(c1)CCCN2C(=O)CCl [compound 2]

isoTOP-ABPP ratio (reactivity profile), P48200_C137 (500 μm in-vitro ramos): 2.0
SMILES: C=CC(=O)N(Cc1cccnc1)c1ccc(Oc2ccccc2)c(C(F)(F)F)c1 [compound 15]

isoTOP-ABPP ratio (reactivity profile), P48200_C137 (500 μm in-vitro ramos): 1.6
SMILES: N#C/C(=C\c1cc(C(F)(F)F)cc(C(F)(F)F)c1)C(N)=O [compound 23]

isoTOP-ABPP reactivity ratio, P48200_C137 (500 μm, in-vitro_ramos): 1.1
SMILES: C=CC(=O)Nc1cc(C)c(Br)cc1C [compound 40]

isoTOP-ABPP reactivity ratio, P48200_C137 (500 μm, in-vitro_ramos_231): 1.2
SMILES: Cc1ccc(C=C(C#N)C(=O)NCCN2CCOCC2)cc1 [compound 41]
